Test results taken from patent publication US6288059A, “Acylated hetero-alicyclic derivatives” (Sankyo Company, Limited, priority 1997, dated 2001).

Tests used:
NK2 receptor = molecular target: T1, NK2 receptor (Cavia porcellus, UniProt Q64077); experiment: NK2 Receptor Binding Test ([3H]-SR-48968, crude ileum membrane fraction); design: species or system guinea pig (male Hartley); settings: [3H]-SR-48968 1 nM; guinea pig ileum membrane; room temperature, 30 minutes; read-out: IC50 (50% binding drug concentration) (converted)
T1 construct: A crude membrane fraction was prepared from the ileum of male Hartley guinea pigs; from tissue; host or cells: ileum of male Hartley guinea pigs, crude membrane fraction
T1 sequence (Q64077 1-402): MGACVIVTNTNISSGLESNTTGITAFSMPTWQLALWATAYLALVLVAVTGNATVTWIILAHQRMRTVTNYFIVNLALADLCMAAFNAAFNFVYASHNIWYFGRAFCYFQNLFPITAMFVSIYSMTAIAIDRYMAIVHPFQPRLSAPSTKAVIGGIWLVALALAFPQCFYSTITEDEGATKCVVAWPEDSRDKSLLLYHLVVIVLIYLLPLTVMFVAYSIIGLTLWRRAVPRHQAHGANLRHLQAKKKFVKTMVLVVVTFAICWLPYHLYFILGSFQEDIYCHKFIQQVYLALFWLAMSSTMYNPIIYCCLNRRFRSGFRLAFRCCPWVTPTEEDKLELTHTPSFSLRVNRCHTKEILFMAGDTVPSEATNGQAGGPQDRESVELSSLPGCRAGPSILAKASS
Description: Test Example 2 NK2 Receptor Binding Test
(a) Preparation of crude ileum membrane fraction
A crude membrane fraction was prepared from the ileum of male Hartley guinea pigs. Namely, the guinea pigs were bled from the cava abdominalis under chloroform anaesthesia and the ileum was extracted immediately.
After the contents secreta and epithelium of the ilium had been scraped off using a glass slide, the extracted ileum was thinly cut in a buffer (1) (50 mM Tris-HCl, pH 7.4) and then homogenized in a buffer (2) [buffer (1) containing 120 mM sodium chloride and 5 mM potassium chloride] using a Polytron homogenizer.
The tissue mass was removed from the homogenate by filtration with a nylon mesh (50 μm) and the supernatant was centrifuged (30,000×g, 30 minutes, 4° C.).
The resultant pellet was resuspended in an ice-cooled buffer (3) [buffer (1) containing 10 mM EDTA and 300 mM potassium chloride], allowed to stand at 4° C. for 60 minutes and then washed centrifugally twice (30,000×g, 15 minutes, 4° C.).
The crude membrane fraction was preserved at -80° C. before use.
(b) Receptor Binding Test
To a mixed solution (250 μl) of the test compound and [^3 H]-SR.-48968 (Amasham Co., final concentration: 1 nM) (50 mM Tris-HCl, pH 7.4; 6 mM manganese chloride, 800 μg/ml BSA, 8 μg/ml chymostatin, 8 μg/ml leupeptin, 80 μg/ml bacitracin, 20 μg/ml phosphoramidon) was added the crude ileum membrane fraction solution (250 μl), followed by incubation at room temperature for 30 minutes.
After the reaction, a membrane ingredient was recovered on a GF/B glass fiber filter (Whatman Co.) using an automatic filtering device (Brandel Co.).
The glass filter was used after pretreatment with a 10% of polyethyleneimine solution for about 4 hours so as to inhibit non-specificbinding as much as possible.
The membrane ingredient-recovered filter was transferred to a mini-plastic vial containing a pico flow (4 ml) and the radioactivity was measured using a liquid scintillation counter (Beckman Co., LSC3500) to determine the 50% binding drug concentration (IC50).

NK2 receptors = settings: relative to SR48968; Tachykinin in Health and Disease abstract, 1997; cited from earlier work

IC50 (NK2 receptor) [nM]	SMILES	NK2 receptor-selective antagonistic activity compared with SR.48968 (NK2 receptors)
1.67	O=C(C1CCC1)N1CCOC(CCN2CCC3(CC2)c2ccccc2C[S+]3[O-])(c2ccc(Cl)c(Cl)c2)C1 [Example 1, 1-{2-[(2R)-(3,4-dichlorophenyl)-4-(cyclobutanecarbonyl)morpholin-2-yl]ethyl}spiro[benzo[c]thiophene-1(3H),4'-piperidine]-(2S)-oxide]	
1.39	O=C(C1CC1)N1CCOC(CCN2CCC3(CC2)c2ccccc2C[S+]3[O-])(c2ccc(Cl)c(Cl)c2)C1 [Example 2, 1-{2-[(2R)-(3,4-dichlorophenyl)-4-(cyclopropanecarbonyl)morpholin-2-yl]ethyl}spiro[benzo[c]thiophene-1(3H),4'-piperidine]-(2S)-oxide]	
1.58	O=C(C1CCCC1)N1CCOC(CCN2CCC3(CC2)c2ccccc2C[S+]3[O-])(c2ccc(Cl)c(Cl)c2)C1 [Example 3, 1-{2-[(2R)-(3,4-dichlorophenyl)-4-(cyclopentanecarbonyl)morpholin-2-yl]ethyl}spiro[benzo[c]thiophene-1(3H),4'-piperidine]-(2S)-oxide]	
	CN(C)C(=O)NC1(c2ccccc2)CCN(CC[C@@]2(c3ccc(F)c(F)c3)CN(C(=O)c3ccccc3)CCO2)CC1 [SR144190]	more potent than that of SR.48968
